Values quoted from earlier work, collected in patent US20190008832A1, “COMPOSITIONS FOR THE TREATMENT OF PRESBYOPIA” (priority 2015, published 2019).

Tested on: eye

CC[C@@H]1C(=O)OC[C@@H]1Cc1cncn1C [pilocarpine]
Side effects in some patients (WO2008/075149 compositions: pilocarpine HCl 1% and diclofenac sodium 0.5%): causes diarrhea and dyspepsia
Percentage of pilocarpine necessary to be effective in the treatment of presbyopia (single active ingredient in a topical composition): greater than 0.5 % by weight
Tolerability of pilocarpine at percentages higher than 0.5% by weight (topical, reddening of the eye, ocular and forehead pain, headaches): not tolerated
